Measured values as given in the NIST ThermoML archive (doi:10.1021/je020125e).
Numbers after ± are expanded uncertainties.

Details: 101.33 kPa, Liquid, Hot wire method

Compound CC(C)C(C)(C)C [2,2,3-trimethylbutane] has a thermal conductivity (257.27 K) of 0.1051 ± 0.00073 W/m/K, a thermal conductivity (257.53 K) of 0.105 ± 0.00073 W/m/K and a thermal conductivity (257.81 K) of 0.1049 ± 0.00073 W/m/K. It also gave a thermal diffusivity (258.21 K) of 7.28e-08 ± 1.4e-09 m2/s, a thermal diffusivity (258.88 K) of 7.27e-08 ± 1.4e-09 m2/s and a thermal diffusivity (259.58 K) of 7.26e-08 ± 1.4e-09 m2/s. The thermal conductivity (277.62 K) was 0.1001 ± 0.0007 W/m/K, the thermal conductivity (277.9 K) was 0.0999 ± 0.0007 W/m/K and the thermal conductivity (278.17 K) was 0.0998 ± 0.0007 W/m/K. For the same compound, the thermal diffusivity (278.57 K) was 6.81e-08 ± 1.3e-09 m2/s, the thermal diffusivity (279.26 K) was 6.79e-08 ± 1.3e-09 m2/s and the thermal diffusivity (279.93 K) was 6.77e-08 ± 1.3e-09 m2/s. For the same compound, the thermal conductivity (296.29 K) was 0.09516 ± 0.00067 W/m/K, the thermal conductivity (296.58 K) was 0.09508 ± 0.00067 W/m/K and the thermal conductivity (296.87 K) was 0.09497 ± 0.00067 W/m/K. For the same compound, the thermal diffusivity (297.2 K) was 6.29e-08 ± 1.2e-09 m2/s, the thermal diffusivity (297.91 K) was 6.32e-08 ± 1.2e-09 m2/s and the thermal diffusivity (298.61 K) was 6.3e-08 ± 1.2e-09 m2/s. The thermal conductivity (313.91 K) was 0.09108 ± 0.00065 W/m/K, the thermal conductivity (314.21 K) was 0.09098 ± 0.00065 W/m/K and the thermal conductivity (314.52 K) was 0.09085 ± 0.00065 W/m/K. For the same compound, the thermal diffusivity (314.85 K) was 6e-08 ± 1.1e-09 m2/s, the thermal diffusivity (315.57 K) was 6e-08 ± 1.1e-09 m2/s and the thermal diffusivity (316.3 K) was 5.98e-08 ± 1.1e-09 m2/s. The thermal conductivity (331.18 K) was 0.08718 ± 0.00062 W/m/K, the thermal conductivity (331.48 K) was 0.08706 ± 0.00062 W/m/K and the thermal conductivity (331.79 K) was 0.0869 ± 0.00062 W/m/K. For the same compound, the thermal diffusivity (332.15 K) was 5.72e-08 ± 1.1e-09 m2/s, the thermal diffusivity (332.87 K) was 5.7e-08 ± 1.1e-09 m2/s and the thermal diffusivity (333.59 K) was 5.66e-08 ± 1.1e-09 m2/s.

CC(C)CC(C)(C)C [2,2,4-trimethylpentane] gave a thermal conductivity (259.11 K) of 0.1042 ± 0.00073 W/m/K, a thermal conductivity (259.32 K) of 0.1041 ± 0.00073 W/m/K and a thermal conductivity (259.52 K) of 0.104 ± 0.00073 W/m/K. The thermal diffusivity (259.89 K) was 7.3e-08 ± 1.4e-09 m2/s, the thermal diffusivity (260.43 K) was 7.32e-08 ± 1.4e-09 m2/s and the thermal diffusivity (260.92 K) was 7.33e-08 ± 1.4e-09 m2/s. For the same compound, the thermal conductivity (277.52 K) was 0.09971 ± 0.0007 W/m/K, the thermal conductivity (277.74 K) was 0.09966 ± 0.0007 W/m/K and the thermal conductivity (277.93 K) was 0.09958 ± 0.0007 W/m/K. It also gave a thermal diffusivity (278.29 K) of 6.86e-08 ± 1.3e-09 m2/s, a thermal diffusivity (278.84 K) of 6.88e-08 ± 1.3e-09 m2/s and a thermal diffusivity (279.31 K) of 6.87e-08 ± 1.3e-09 m2/s. For the same compound, the thermal conductivity (295.67 K) was 0.09516 ± 0.00067 W/m/K, the thermal conductivity (295.9 K) was 0.09509 ± 0.00067 W/m/K and the thermal conductivity (296.1 K) was 0.09502 ± 0.00067 W/m/K. The thermal diffusivity (296.41 K) was 6.37e-08 ± 1.2e-09 m2/s, the thermal diffusivity (296.96 K) was 6.41e-08 ± 1.2e-09 m2/s and the thermal diffusivity (297.45 K) was 6.42e-08 ± 1.2e-09 m2/s. The thermal conductivity (313.79 K) was 0.09108 ± 0.00065 W/m/K, the thermal conductivity (314.02 K) was 0.091 ± 0.00065 W/m/K and the thermal conductivity (314.22 K) was 0.09093 ± 0.00065 W/m/K. The thermal diffusivity (314.56 K) was 6.07e-08 ± 1.1e-09 m2/s, the thermal diffusivity (315.1 K) was 6.07e-08 ± 1.1e-09 m2/s and the thermal diffusivity (315.57 K) was 6.07e-08 ± 1.1e-09 m2/s. It also gave a thermal conductivity (327.69 K) of 0.08786 ± 0.00063 W/m/K, a thermal conductivity (327.93 K) of 0.0878 ± 0.00063 W/m/K and a thermal conductivity (328.14 K) of 0.08771 ± 0.00063 W/m/K. It also gave a thermal diffusivity (328.47 K) of 5.82e-08 ± 1.1e-09 m2/s, a thermal diffusivity (329.04 K) of 5.83e-08 ± 1.1e-09 m2/s and a thermal diffusivity (329.52 K) of 5.81e-08 ± 1.1e-09 m2/s.

CCC(C)(C)C [2,2-dimethylbutane] gave a thermal conductivity (257.48 K) of 0.1055 ± 0.001 W/m/K, a thermal conductivity (257.84 K) of 0.1053 ± 0.001 W/m/K and a thermal conductivity (258.3 K) of 0.1051 ± 0.001 W/m/K. For the same compound, the thermal diffusivity (258.74 K) was 7.54e-08 ± 1.5e-09 m2/s, the thermal diffusivity (259.62 K) was 7.49e-08 ± 1.5e-09 m2/s and the thermal diffusivity (260.73 K) was 7.46e-08 ± 1.5e-09 m2/s. It also gave a thermal conductivity (271.49 K) of 0.1011 ± 0.001 W/m/K, a thermal conductivity (271.84 K) of 0.101 ± 0.001 W/m/K and a thermal conductivity (272.32 K) of 0.1008 ± 0.001 W/m/K. It also gave a thermal diffusivity (272.79 K) of 7.16e-08 ± 1.4e-09 m2/s, a thermal diffusivity (273.65 K) of 7.14e-08 ± 1.4e-09 m2/s and a thermal diffusivity (274.78 K) of 7.08e-08 ± 1.4e-09 m2/s. It also gave a thermal conductivity (279.86 K) of 0.09854 ± 0.00098 W/m/K, a thermal conductivity (280.24 K) of 0.09842 ± 0.00098 W/m/K and a thermal conductivity (280.73 K) of 0.09822 ± 0.00098 W/m/K. It also gave a thermal diffusivity (281.17 K) of 6.94e-08 ± 1.4e-09 m2/s, a thermal diffusivity (282.06 K) of 6.92e-08 ± 1.4e-09 m2/s and a thermal diffusivity (283.23 K) of 6.85e-08 ± 1.4e-09 m2/s. It also gave a thermal conductivity (297.98 K) of 0.09321 ± 0.00093 W/m/K, a thermal conductivity (298.42 K) of 0.09307 ± 0.00093 W/m/K and a thermal conductivity (298.91 K) of 0.09289 ± 0.00093 W/m/K. It also gave a thermal diffusivity (299.31 K) of 6.48e-08 ± 1.3e-09 m2/s, a thermal diffusivity (300.31 K) of 6.46e-08 ± 1.3e-09 m2/s and a thermal diffusivity (301.44 K) of 6.41e-08 ± 1.3e-09 m2/s. It also gave a thermal conductivity (319.35 K) of 0.08745 ± 0.00088 W/m/K, a thermal conductivity (319.75 K) of 0.08729 ± 0.00088 W/m/K and a thermal conductivity (320.28 K) of 0.08709 ± 0.00088 W/m/K. The thermal diffusivity (320.72 K) was 6.03e-08 ± 1.2e-09 m2/s, the thermal diffusivity (321.62 K) was 5.99e-08 ± 1.2e-09 m2/s and the thermal diffusivity (322.83 K) was 5.95e-08 ± 1.2e-09 m2/s.

CCCC(C)(C)C [2,2-dimethylpentane] showed a thermal conductivity (256.16 K) of 0.1094 ± 0.00076 W/m/K, a thermal conductivity (256.52 K) of 0.1091 ± 0.00076 W/m/K and a thermal conductivity (256.84 K) of 0.109 ± 0.00076 W/m/K. The thermal diffusivity (257.01 K) was 7.66e-08 ± 1.4e-09 m2/s, the thermal diffusivity (257.9 K) was 7.58e-08 ± 1.4e-09 m2/s and the thermal diffusivity (258.7 K) was 7.56e-08 ± 1.4e-09 m2/s. The thermal conductivity (275.45 K) was 0.1041 ± 0.00073 W/m/K, the thermal conductivity (275.83 K) was 0.1039 ± 0.00073 W/m/K and the thermal conductivity (276.13 K) was 0.1037 ± 0.00073 W/m/K. The thermal diffusivity (276.31 K) was 7.15e-08 ± 1.4e-09 m2/s, the thermal diffusivity (277.21 K) was 7.06e-08 ± 1.3e-09 m2/s and the thermal diffusivity (277.95 K) was 7.03e-08 ± 1.3e-09 m2/s. For the same compound, the thermal conductivity (296.32 K) was 0.09819 ± 0.00069 W/m/K, the thermal conductivity (296.69 K) was 0.09803 ± 0.00069 W/m/K and the thermal conductivity (297.02 K) was 0.09794 ± 0.00069 W/m/K. It also gave a thermal diffusivity (297.15 K) of 6.57e-08 ± 1.2e-09 m2/s, a thermal diffusivity (298.03 K) of 6.53e-08 ± 1.2e-09 m2/s and a thermal diffusivity (298.82 K) of 6.49e-08 ± 1.2e-09 m2/s. The thermal conductivity (317.22 K) was 0.09288 ± 0.00066 W/m/K, the thermal conductivity (317.63 K) was 0.09264 ± 0.00066 W/m/K and the thermal conductivity (317.95 K) was 0.09251 ± 0.00066 W/m/K. It also gave a thermal diffusivity (318.05 K) of 6.1e-08 ± 1.1e-09 m2/s, a thermal diffusivity (318.98 K) of 6.05e-08 ± 1.1e-09 m2/s and a thermal diffusivity (319.72 K) of 6.03e-08 ± 1.1e-09 m2/s. It also gave a thermal conductivity (336.91 K) of 0.08793 ± 0.00063 W/m/K, a thermal conductivity (337.31 K) of 0.08776 ± 0.00063 W/m/K and a thermal conductivity (337.64 K) of 0.0876 ± 0.00063 W/m/K. For the same compound, the thermal diffusivity (337.72 K) was 5.67e-08 ± 1.1e-09 m2/s, the thermal diffusivity (338.63 K) was 5.61e-08 ± 1.1e-09 m2/s and the thermal diffusivity (339.39 K) was 5.59e-08 ± 1.1e-09 m2/s.
